Experiments:
[1] = test system: mouse skin fibroblasts; settings: addition of HA to primary cultures; cited from earlier work
[2] = test system: extracellular matrix metalloproteases; settings: HA 1 mg/ml; cited from earlier work
[3] = exogenous hyaluronic acid, non cross-linked; cited from earlier work
[4] = test system: Human fibroblasts, Detroit 551 ATCC CCL III; test: Stimulation of HA synthesis in human fibroblast cultures (EIA HA assay); type: cell-based; settings: 48 h
From the text: The test has been conducted in two stages, i.e.: • stage A: in which the stimulation of HA expression by COMBI has been evaluated while maintaining the concentration constant and varying the reciprocal quantities of its components. The concentration used has been selected so as to enable comparison with the results derived from stage B; • stage B: in which the effect of CA on HA expression has been evaluated by varying its concentration and in comparison with doses consistent with its components. […] Human fibroblasts have been grown in suitable growth medium (Eagle's minimal essential medium) supplemented with 10% foetal calf serum (FCS), 1 mM sodium pyruvate, 2 mM glutamine, non-essential aminoacids and 50 μg/ml glutamycin. […] After 48 hours, the supernatant has been removed and used for the determination of the parameters of interest. The test has been conducted in duplicate and untreated cell cultures have been used as controls. HA has been assayed (dosed) by means of an immuno-enzymatic test using a commercially available kit (EIA, Corgenix). De novo HA synthesis has been evaluated in the culture medium following treatment with the test substances, according to the protocol provided with the test, and against the calibration curve obtained using the HA standard contained in the kit. […] • evaluation of the effects of the substances tested, at the various concentrations, on fibroblast cultures has been expressed as the absolute and percent increase or decrease of the HA expression, with respect to the corresponding control culture, after 48 hours of incubation. The percentage difference increase or decrease of the effects exerted by CA and NAG, at corresponding concentrations, have then been calculated, with evaluation of their potential significance by means of the Student's “t” test.

[5] = test system: Human fibroblasts, Detroit 551 ATCC CCL III; test: Stimulation of collagen synthesis in human fibroblast cultures (Sircol assay); type: cell-based; settings: 24 h
From the text: The scope of the test has been the evaluation and the comparison of the potential stimulation exerted by the test substances on the expression of collagen and elastin in “in vitro” cultures of skin-derived cells, such as fibroblasts. The test in question, even though conducted “in vitro”, can be considered to be predictive of the effects of use of the same substances “in vivo”. […] The samples have been dissolved directly in the culture medium. Each sample has been tested in duplicate and the experiments have been repeated twice. The parameters of interest have been determined after 24 hours on separate plates. Untreated cell cultures have been used as controls. A commercially available kit (Sircol™, biodye science) which uses the capacity of the stain Sirius Red to interact with the basic side chains of the aminoacids present in collagen itself, has been used for collagen assays. De novo collagen synthesis has been evaluated in the culture medium following treatment with the test substances, following the protocol provided with the kit, and by using the calibration curve obtained employing the collagen standard contained in turn in the kit. Evaluation of the effects of the substances tested, at the various concentrations, on fibroblast cultures, has been expressed as the absolute and percent increase or decrease of collagen and elastin expression, with respect to the corresponding control culture, after 24 hours of incubation. The percentage difference increase or decrease of the effects exerted by CA and NAG, at corresponding concentrations, have then been calculated, with consequent evaluation of their potential statistical significance by means of the test Student “t” test.

[6] = test system: Human fibroblasts, Detroit 551 ATCC CCL III; test: Stimulation of elastin synthesis in human fibroblast cultures (Fastin assay); type: cell-based; settings: 24 h
From the text: The scope of the test has been the evaluation and the comparison of the potential stimulation exerted by the test substances on the expression of collagen and elastin in “in vitro” cultures of skin-derived cells, such as fibroblasts. The test in question, even though conducted “in vitro”, can be considered to be predictive of the effects of use of the same substances “in vivo”.
Human fibroblasts, Detroit 551 ATCC CCL III from LGC Promochem (Milan, Italy) have been used.
The substances and concentrations tested have been the same as those already described for stage B of the test on the stimulation of HA expression, i.e.: • CA: 0.66, 1.32, 1.98, 2.64 and 3.3 mg/ml • NAG: 0.5, 1.0, 1.5, 2.0 and 2.5 mg/ml • ASS: 0.16, 0.32, 0.48, 0.64 and 0.80 mg/ml
Cells have been plated out in 96 well plates, 2500 cells/well for 24 hours in cell growth medium ([…], DMEM)+10% foetal calf serum (FCS). Fresh culture medium, enriched with just 5% FCS and containing the substances to be tested, so as to reach the final concentrations desired, has then been added. The samples have been dissolved directly in the culture medium. Each sample has been tested in duplicate and the experiments have been repeated twice. The parameters of interest have been determined after 24 hours on separate plates. Untreated cell cultures have been used as controls.
Elastin has been assayed using a commercially available test (Fastin™, biodye science). The assay is based on the interaction of 5,10,15,20-tetraphenyl-21,23-porphyrin with elastin molecules.
De novo elastin synthesis has been evaluated in the culture medium following treatment with the test substances, following the protocol provided with the test, and by using the calibration curve obtained employing the elastin standard contained in the kit itself.
Evaluation of the effects of the substances tested, at the various concentrations, on fibroblast cultures, has been expressed as the absolute and percent increase or decrease of collagen and elastin expression, with respect to the corresponding control culture, after 24 hours of incubation.
The percentage difference increase or decrease of the effects exerted by CA and NAG, at corresponding concentrations, have then been calculated, with consequent evaluation of their potential statistical significance by means of the test Student “t” test.

[7] = test system: primary culture of human keratinocytes (HEKA); test: MTT cytotoxicity test on keratinocytes; type: cell-based; settings: positive control, 0.5 mg/ml SDS
From the text: (§1) For this purpose the cell viability test using MTT (3-[4,5-dimethylthiazol-2-yl]-2,5-diphenyl tetrazolium bromide) [Mossman 1993] a colourimetric reagent, by means of which it is possible to distinguish between living, damaged or dead cells, being thus predictive of the safety of use of test substances, even “in vivo”, has been selected.
(§2) The following have been used: • human fibroblasts, Detroit 551 ATCC CCL III from LGC Promochem (Milan, Italy); • primary culture of human keratinocytes (HEKA), Cascade Biologics, cat.-005-5c.
(§3) In the study in question, CA has been previously dissolved and brought into contact with the selected cell cultures in such a manner as to directly reach the desired concentrations, i.e.: […]
(§4) As already mentioned, the key reagent is MTT, a yellow-coloured substance in aqueous solution which, when acted-on by the mitochondrial dehydrogenases present in viable cells, is transformed into purple crystals, insoluble in water, but soluble in acidified isopropanol. The absorbance of the resulting purple solution at […] is used as an indicator of the level of cytotoxicity of the substances under test.
(§5) In operational terms, the key reagent is prepared by adding 15 mg of MTT to 30 ml of culture medium. […] The plates are shaken for 20-30 minutes until a homogenous solution is formed, the absorbance of which is then read at […] with a background reading at 670 nm. […]

[8] = test system: Human fibroblasts, Detroit 551 ATCC CCL III; test: MTT cytotoxicity test on fibroblasts; type: cell-based; settings: positive control, 0.5 mg/ml SDS
From the text: as §1, §2, §3, §4, §5

In the case of Hyaluronic acid [HA], the “effect on DNA synthesis” value [1] is listed as “causes transient DNA synthesis”, the “expression of extracellular matrix metalloproteases” value [2] is listed as “clear increase” and the “half-life in the skin” value [3] is listed as “less than 24 hours”.

For anhydrous sodium sulphate [ASS], the “HA (%) (Diff. from baseline)” value ([4]; ASS 0.16 mg/ml) was “+6.07%”, the “HA(ng/well) (Diff. from baseline)” value ([4]; ASS 0.16 mg/ml) was 35 ng/well and the “HA (%) (Diff. from baseline)” value ([4]; ASS 0.32 mg/ml) was “+7.99%”. For the same compound, the “HA(ng/well) (Diff. from baseline)” value ([4]; ASS 0.32 mg/ml) was 46 ng/well, the “HA (%) (Diff. from baseline)” value ([4]; ASS 0.48 mg/ml) was “+9.38%” and the “HA(ng/well) (Diff. from baseline)” value ([4]; ASS 0.48 mg/ml) was 54 ng/well. For the same compound, the “HA (%) (Diff. from baseline)” value ([4]; ASS 0.64 mg/ml) was −25.87%, the “HA(ng/well) (Diff. from baseline)” value ([4]; ASS 0.64 mg/ml) was −149 ng/well and the “HA (%) (Diff. from baseline)” value ([4]; ASS 0.80 mg/ml) was “+1.91%”. For the same compound, the “HA(ng/well) (Diff. from baseline)” value ([4]; ASS 0.80 mg/ml) was 11 ng/well, the “effect on HA expression (in words)” value ([4]; ASS alone 0.16-0.80 mg/ml) was “exerts no stimulation nor inhibition” and the “Collagen (%) (Diff. from baseline)” value ([5]; ASS 0.16 mg/ml) was −8.45%. For the same compound, the “Collagen(μg/ml) (Diff. from baseline)” value ([5]; ASS 0.16 mg/ml) was -0.43 µg/mL, the “Collagen (%) (Diff. from baseline)” value ([5]; ASS 0.32 mg/ml) was “+3.93%” and the “Collagen(μg/ml) (Diff. from baseline)” value ([5]; ASS 0.32 mg/ml) was “+0.20 μg/ml”. For the same compound, the “Collagen (%) (Diff. from baseline)” value ([5]; ASS 0.48 mg/ml) was “+1.77%”, the “Collagen(μg/ml) (Diff. from baseline)” value ([5]; ASS 0.48 mg/ml) was “+0.09 μg/ml” and the “Collagen (%) (Diff. from baseline)” value ([5]; ASS 0.64 mg/ml) was “+9.03%”. For the same compound, the “Collagen(μg/ml) (Diff. from baseline)” value ([5]; ASS 0.64 mg/ml) was “+0.46 μg/ml”, the “Collagen (%) (Diff. from baseline)” value ([5]; ASS 0.80 mg/ml) was −3.34% and the “Collagen(μg/ml) (Diff. from baseline)” value ([5]; ASS 0.80 mg/ml) was -0.17 µg/mL. For the same compound, the “effect on collagen expression (in words)” value ([5]; ASS alone 0.16-0.80 mg/ml) was “exerts no type of stimulation or inhibition”, the “Elastin (%) (Diff. from baseline)” value ([6]; ASS 0.16 mg/ml) was −2.33% and the “Elastin (μg/ml) (Diff. from baseline)” value ([6]; ASS 0.16 mg/ml) was -0.11 µg/mL. The “Elastin (μg/ml) (Mean ± st. dev.)” value ([6]; ASS 0.16 mg/ml) was 4.61 ± 0.41 µg/mL, the “Elastin (%) (Diff. from baseline)” value ([6]; ASS 0.32 mg/ml) was “+1.98%” and the “Elastin (μg/ml) (Diff. from baseline)” value ([6]; ASS 0.32 mg/ml) was “+0.07 μg/ml”. The “Elastin (μg/ml) (Mean ± st. dev.)” value ([6]; ASS 0.32 mg/ml) was 4.79 ± 0.44 µg/mL, the “Elastin (%) (Diff. from baseline)” value ([6]; ASS 0.48 mg/ml) was “+9.75%” and the “Elastin (μg/ml) (Diff. from baseline)” value ([6]; ASS 0.48 mg/ml) was “+0.46 μg/ml”. The “Elastin (μg/ml) (Mean ± st. dev.)” value ([6]; ASS 0.48 mg/ml) was 5.18 ± 0.36 µg/mL, the “Elastin (%) (Diff. from baseline)” value ([6]; ASS 0.64 mg/ml) was −3.81% and the “Elastin (μg/ml) (Diff. from baseline)” value ([6]; ASS 0.64 mg/ml) was -0.18 µg/mL. For the same compound, the “Elastin (μg/ml) (Mean ± st. dev.)” value ([6]; ASS 0.64 mg/ml) was 4.54 ± 0.47 µg/mL, the “Elastin (%) (Diff. from baseline)” value ([6]; ASS 0.80 mg/ml) was −3.39% and the “Elastin (μg/ml) (Diff. from baseline)” value ([6]; ASS 0.80 mg/ml) was “+0.16 μg/ml”. The “Elastin (μg/ml) (Mean ± st. dev.)” value ([6]; ASS 0.80 mg/ml) was 4.83 ± 0.30 µg/mL and the “effect on elastin expression (in words)” value ([6]; ASS alone 0.16-0.80 mg/ml) was “incapable of exerting any effect, either stimulatory or inhibitory”.

In the case of CCCCCCCCCCCCOS(=O)(=O)[O-].[Na+] [SDS, sodium dodecylsulphate], the “mortality of the keratinocyte culture” value [7] was 94.28% and the cell mortality [8] was 96.05%.

From patent US20100028395A1, “COMPOSITIONS CONTAINING N-ACETYLGLUCOSAMINE FOR USE IN DERMO-COSMETOLOGY AND AESTHETIC MEDICINE” (ROTTAPHARM S.P.A., priority 2007, published 2010)
